From patent publication US10501487B2, “Antibacterial bismuth complexes” (priority 2015, dated 2019)
Where two headings read alike, the source gives them in different places.

Experiments:
[1] = tested on: cos 7 (monkey kidney-derived) cells; assay: MTT-based toxicology assay; assay type: cell-based; conditions: 1 mg/mL, two hours; preliminary results
Procedure: Toxicity testing was performed on the example complexes 1-5 as well as the corresponding ligands against cos 7 eukaryotic cells. Cytotoxicity was assessed using the MTT-based toxicology assay (Sigma-Aldrich; TOX1 assay kit) according to the manufacturer's instructions. Compounds were added to cultured cos 7 (monkey kidney-derived) cells at 1 mg/mL and 0.5 mg/mL for two hours. The MTT reagent was then added and cells were incubated at 37° C. for a further two hours. Following incubation, MTT solubilisation solution was added and mixed. Absorbance results were measured on a Tecan plate reader at 690 nm (background reading) and again at 570 nm. Results were calculated after subtracting the background reading (690 nm) from the values obtained at 570 nm. Cell viability was expressed as a normalised percentage against the blank (medium-only) negative controls. All assays were performed in duplicate.

E. coli = assay: Test 1: colony count after incubation in Lysogeny broth culture; assay type: cell-based; conditions: for inhibition of growth at 2000 µg/mL: Escherichia coli, 2 h, read-out: Reduction in bacterial growth (%) E. coli; for Colony E. coli: Table 1a, 10 mg in 5 mL culture, 2 hours at 37° C., Blank 8.00E+08 (examples), 6.40E+08 (second Blank)
Procedure: (§1) Bacteria were grown in […] Lysogeny broth (LB), shaking at 37° C. to an optical density (OD) of 0.6 (2-3 hr). The culture was divided in […]. One of the cultures was used as a control, containing no organobismuth(III) phosphinate complex. To the other culture, 10 mg of the appropriate organobismuth (III) phosphinate complex was added. The control and organobismuth(III) phosphinate complex-containing cultures were then incubated for 2 hours at 37° C. with shaking. An aliquot was removed from each culture, serially diluted and 50 uL spread on lysogeny broth plates (˜1 in 10^7 gives countable colony numbers for the wild type controls). The plates were incubated overnight at 37° C. The colonies were counted and multiplied by the dilution factor to determine the colony-forming unit (cfu)/ml of the original culture.
(§2) The experiments were also repeated in a lower concentration (0.5 mg/mL) in accordance with the procedure above, which is also shown in Table 2.

S. aureus = assay: as above; assay type: cell-based; conditions: for inhibition of growth at 2000 µg/mL: Staphylococcus aureus, 2 h, read-out: Reduction in bacterial growth (%) S. aureus; for Colony S. aureus: Table 1a, 10 mg in 5 mL culture, 2 hours at 37° C., Blank 8.00E+08 (examples), 4.00E+08 (second Blank)
Procedure: as §1, §2

MRSA = assay: Test 3: complex incorporated in agar, colony growth; assay type: cell-based, Staphylococcus aureus; conditions: 1 mg in agar (20 mL)
Procedure: (§3) The organobismuth (III) phosphinate complex (10 mg or 1 mg) was spread at the bottom of a petri dish. 20 mL of agar was poured on top, before allowing to dry and being stored in a cool dry place. MRSA and VRE were grown in 40 mL BHI with shaking at 37° C. to an OD (optical density) of 0.6 (2-3 hr). The bacteria were then grown for a further 2 hours at 37° C. The bacteria were then plated (at no dilution, 10^3-fold dilution, and 10^4-fold dilution on agar plates containing organobismuth (III) phosphinate and control plates containing no organobismuth (III) phosphinate. The plates were incubated overnight at 37° C. The colonies were counted and multiplied by the dilution factor to determine the colony-forming unit (cfu)/ml of the original culture.

VRE = assay: as above; assay type: cell-based, Enterococcus; conditions: 1 mg in agar (20 mL)
Procedure: as §3

[2] = 2 mg/mL, normalised against the Blank sample
[3] = 0.5 mg/mL, normalised against the Blank sample

CP(C)(=O)[O][Bi]([O]P(C)(C)=O)[c]1ccccc1 [Example 5, Phenyl Bismuth bis(dimethylphosphinate)]
toxicity (in words) [1]: relatively non-toxic

O=[N+]([O-])c1cccc(P(=O)(O)c2cccc([N+](=O)[O-])c2)c1 [bis(3-nitrophenyl)phosphinic acid, Bis(3-nitrophenyl)phosphinic acid]
inhibition of growth at 2000 µg/mL (E. coli; [2]): 90%
Colony E. coli (E. coli): 8.00E+07 cfu/ml
inhibition of growth at 2000 µg/mL (S. aureus; [2]): 0%
Colony S. aureus (S. aureus): 8.00E+08 cfu/ml

COc1ccc(P(=O)([O][Bi]([O]P(=O)(c2ccc(OC)cc2)c2ccc(OC)cc2)[c]2ccccc2)c2ccc(OC)cc2)cc1 [Example 2, Phenyl bismuth bis(bis(4-methoxyphenyl)phosphinate)]
Reduction in bacterial growth (%) E. coli (E. coli; [3]): 100.00%
Reduction in bacterial growth (%) E. coli (E. coli; [2]): 100.00%
Colony E. coli (E. coli): 1.50E+01 cfu/ml
Reduction in bacterial growth (%) S. aureus (S. aureus; [3]): 40.00%
Reduction in bacterial growth (%) S. aureus (S. aureus; [2]): 100.00%
Colony S. aureus (S. aureus): 0.00E+00 cfu/ml

c1cc[c]([Bi]([c]2ccccc2)[c]2ccccc2)cc1 [triphenylbismuth]
bacterial growth on treated agar (in words) (MRSA): grew to a comparable number as the blank
bacterial growth on treated agar (in words) (VRE): grew to a comparable number as the blank

O=[PH]([O][Bi]([O][PH](=O)c1ccccc1)[c]1ccccc1)c1ccccc1 (stereo not drawn) [Example 4, Phenyl bismuth bis(phenylphosphinate)]
toxicity (in words) [1]: relatively non-toxic

O=P(O)(c1ccccc1)c1ccccc1 [diphenylphosphinic acid]
inhibition of growth at 2000 µg/mL (E. coli; [2]): 70%
Colony E. coli (E. coli): 2.40E+08 cfu/ml
inhibition of growth at 2000 µg/mL (S. aureus; [2]): 0%
Colony S. aureus (S. aureus): 8.00E+08 cfu/ml

CP(C)(=O)O [dimethyl phosphinic acid]
inhibition of growth at 2000 µg/mL (E. coli): 78.8%
Colony E. coli (E. coli): 1.70E+08 cfu/ml
inhibition of growth at 2000 µg/mL (S. aureus): 25%
Colony S. aureus (S. aureus): 6.00E+08 cfu/ml

O=[PH](O)c1ccccc1 [phenylphosphinic acid]
inhibition of growth at 2000 µg/mL (E. coli): 60%
Colony E. coli (E. coli): 3.20E+08 cfu/ml
inhibition of growth at 2000 µg/mL (S. aureus): 0%
Colony S. aureus (S. aureus): 8.00E+08 cfu/ml

O=[N+]([O-])c1cccc(P(=O)([O][Bi]([O]P(=O)(c2cccc([N+](=O)[O-])c2)c2cccc([N+](=O)[O-])c2)[c]2ccccc2)c2cccc([N+](=O)[O-])c2)c1 [Example 3, Phenyl bismuth bis(bis(3-nitrophenyl)phosphinate)]
bacterial growth on treated agar (in words) (MRSA): no bacterial growth was observed
Reduction in bacterial growth (%) E. coli (E. coli; [3]): 97.00%
Reduction in bacterial growth (%) E. coli (E. coli; [2]): 100.00%
Colony E. coli (E. coli): 0.00E+00 cfu/ml
Reduction in bacterial growth (%) S. aureus (S. aureus; [3]): 90.00%
Reduction in bacterial growth (%) S. aureus (S. aureus; [2]): 100.00%
Colony S. aureus (S. aureus): 0.00E+00 cfu/ml
bacterial growth on treated agar (in words) (VRE): no bacterial growth was observed

COc1ccc(P(=O)(O)c2ccc(OC)cc2)cc1 [bis(4-methoxyphenyl)phosphinic acid]
inhibition of growth at 2000 µg/mL (E. coli; [2]): 90%
Colony E. coli (E. coli): 8.00E+07 cfu/ml
inhibition of growth at 2000 µg/mL (S. aureus; [2]): 25%
Colony S. aureus (S. aureus): 6.00E+08 cfu/ml

O=P([O][Bi]([O]P(=O)(c1ccccc1)c1ccccc1)[c]1ccccc1)(c1ccccc1)c1ccccc1 [Example 1, Phenyl bismuth bis(diphenylphosphinate)]
toxicity (in words) [1]: relatively non-toxic
